Experimental data published in paper PMC6829864, “Determination of Ligand Profiles for Pseudomonas aeruginosa Solute Binding Proteins” (International Journal of Molecular Sciences, 2019).
Several values for one entry are separate records, joined by “and”; a condition that tells them apart may be missing. Identical values can stand only once. Where a SMILES comes first, the peptide text is derived from it.

How the values were obtained:
PA2592 [1] = target: T1, PA2592 (Pseudomonas aeruginosa, UniProt Q9I0P5); experiment: DSF thermal shift ligand screening, PA2592; type: binding, Pseudomonas aeruginosa PAO1; settings: arrays PM2A, PM3B, PM5
T1 sequence (Q9I0P5 20-367): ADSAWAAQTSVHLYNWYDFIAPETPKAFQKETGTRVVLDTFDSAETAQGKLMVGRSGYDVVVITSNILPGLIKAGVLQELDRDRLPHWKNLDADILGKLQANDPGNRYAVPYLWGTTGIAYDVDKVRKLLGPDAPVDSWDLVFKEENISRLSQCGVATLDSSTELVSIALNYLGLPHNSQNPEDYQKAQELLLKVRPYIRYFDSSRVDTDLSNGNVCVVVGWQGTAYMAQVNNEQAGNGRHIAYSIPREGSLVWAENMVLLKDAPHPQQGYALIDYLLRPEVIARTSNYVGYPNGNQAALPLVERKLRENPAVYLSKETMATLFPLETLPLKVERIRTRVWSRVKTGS

PA2592 [2] = target: T1, PA2592; experiment: biochemical; type: binding
PA4500 (dppA3) [3] = target: T2, PA4500 (dppA3) (Pseudomonas aeruginosa, UniProt Q9HVS1); experiment: Isothermal titration calorimetry, PA4500; type: binding, Pseudomonas aeruginosa PAO1; settings: 25 °C; for Kd: read-out: KD by ITC (converted)
[4] = system: Pseudomonas aeruginosa PAO1; type: cell-based; settings: chemoeffector 1 mM; for Chemotaxis: capillary assay, 30 min
PA4497 (dppA2) = target: T3, PA4497 (dppA2) (Pseudomonas aeruginosa, UniProt Q9HVS4); type: binding; settings: arrays PM3B, PM6, PM7, PM8
T3 sequence (Q9HVS4 25-532): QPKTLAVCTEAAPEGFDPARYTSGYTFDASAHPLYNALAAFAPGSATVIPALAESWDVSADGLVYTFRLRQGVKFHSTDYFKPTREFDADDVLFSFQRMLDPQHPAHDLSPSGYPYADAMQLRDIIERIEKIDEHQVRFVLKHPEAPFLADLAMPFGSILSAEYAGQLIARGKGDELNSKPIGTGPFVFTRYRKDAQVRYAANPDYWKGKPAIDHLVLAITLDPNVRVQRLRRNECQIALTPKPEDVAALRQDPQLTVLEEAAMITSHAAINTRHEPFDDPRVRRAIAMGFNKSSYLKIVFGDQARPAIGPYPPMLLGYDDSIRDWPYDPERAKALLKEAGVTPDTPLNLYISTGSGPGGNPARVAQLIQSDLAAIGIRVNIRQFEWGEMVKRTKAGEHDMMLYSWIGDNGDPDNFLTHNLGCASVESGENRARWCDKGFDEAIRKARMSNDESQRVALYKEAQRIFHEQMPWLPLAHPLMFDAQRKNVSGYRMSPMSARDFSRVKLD

PA4500 (dppA3) [5] = target: T2, PA4500 (dppA3); experiment: DSF thermal shift ligand screening, PA4500; type: binding, Pseudomonas aeruginosa PAO1; settings: arrays PM3B, PM6, PM7, PM8
PA0222 = target: T4, PA0222 (Pseudomonas aeruginosa, UniProt Q9I6R6); experiment: Isothermal titration calorimetry, PA0222; type: binding, Pseudomonas aeruginosa PAO1; settings: 25 °C
T4 sequence (Q9I6R6 29-352): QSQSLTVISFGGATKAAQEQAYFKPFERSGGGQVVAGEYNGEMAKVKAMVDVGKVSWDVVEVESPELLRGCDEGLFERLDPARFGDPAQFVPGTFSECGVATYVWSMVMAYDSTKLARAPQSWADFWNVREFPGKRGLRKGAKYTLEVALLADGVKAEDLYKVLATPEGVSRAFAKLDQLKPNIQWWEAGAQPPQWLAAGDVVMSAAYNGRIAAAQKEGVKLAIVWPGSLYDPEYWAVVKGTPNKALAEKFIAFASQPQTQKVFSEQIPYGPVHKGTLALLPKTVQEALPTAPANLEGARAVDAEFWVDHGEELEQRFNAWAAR

PA3610 (potD) = PA3610 (potD) (Pseudomonas aeruginosa, UniProt Q9HY16); experiment: Isothermal titration calorimetry, PA3610; type: binding, Pseudomonas aeruginosa PAO1; settings: 25 °C, read-out: KD by ITC (converted)
PA3889 (opuCC) = PA3889 (opuCC) (Pseudomonas aeruginosa, UniProt Q9HXC4); experiment: Isothermal titration calorimetry, PA3889; type: binding, Pseudomonas aeruginosa PAO1; settings: 25 °C
PA1074 (braC) = PA1074 (braC) (Pseudomonas aeruginosa, UniProt P21175); experiment: biochemical; type: binding, Pseudomonas aeruginosa PAO1
PA4913 = PA4913 (Pseudomonas aeruginosa, UniProt Q9HUQ0); experiment: DSF thermal shift ligand screening, PA4913; type: binding, Pseudomonas aeruginosa PAO1; settings: Tm change vs ligand-free protein
Sequence of PA4913 (Q9HUQ0 28-374): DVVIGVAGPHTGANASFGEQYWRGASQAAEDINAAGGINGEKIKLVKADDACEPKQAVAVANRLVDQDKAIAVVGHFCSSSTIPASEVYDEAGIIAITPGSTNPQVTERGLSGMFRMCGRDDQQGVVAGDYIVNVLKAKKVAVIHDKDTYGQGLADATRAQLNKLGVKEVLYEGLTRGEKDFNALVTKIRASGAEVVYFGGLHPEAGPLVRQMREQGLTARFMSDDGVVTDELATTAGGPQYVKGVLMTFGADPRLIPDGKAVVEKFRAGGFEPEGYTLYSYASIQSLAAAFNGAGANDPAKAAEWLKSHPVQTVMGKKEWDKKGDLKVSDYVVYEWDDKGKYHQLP

Sequence of PA1074 (braC) (P21175 27-373): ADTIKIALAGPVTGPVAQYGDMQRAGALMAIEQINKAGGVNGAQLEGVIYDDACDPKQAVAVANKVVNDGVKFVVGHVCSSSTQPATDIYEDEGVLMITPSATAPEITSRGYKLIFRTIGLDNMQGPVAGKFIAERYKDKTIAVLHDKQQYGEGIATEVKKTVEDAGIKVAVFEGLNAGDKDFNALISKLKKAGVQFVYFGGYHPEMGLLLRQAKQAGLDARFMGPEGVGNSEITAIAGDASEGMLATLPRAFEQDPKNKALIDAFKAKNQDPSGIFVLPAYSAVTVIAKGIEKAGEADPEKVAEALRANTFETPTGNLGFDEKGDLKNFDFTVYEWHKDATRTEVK
T2 sequence (Q9HVS1 25-533): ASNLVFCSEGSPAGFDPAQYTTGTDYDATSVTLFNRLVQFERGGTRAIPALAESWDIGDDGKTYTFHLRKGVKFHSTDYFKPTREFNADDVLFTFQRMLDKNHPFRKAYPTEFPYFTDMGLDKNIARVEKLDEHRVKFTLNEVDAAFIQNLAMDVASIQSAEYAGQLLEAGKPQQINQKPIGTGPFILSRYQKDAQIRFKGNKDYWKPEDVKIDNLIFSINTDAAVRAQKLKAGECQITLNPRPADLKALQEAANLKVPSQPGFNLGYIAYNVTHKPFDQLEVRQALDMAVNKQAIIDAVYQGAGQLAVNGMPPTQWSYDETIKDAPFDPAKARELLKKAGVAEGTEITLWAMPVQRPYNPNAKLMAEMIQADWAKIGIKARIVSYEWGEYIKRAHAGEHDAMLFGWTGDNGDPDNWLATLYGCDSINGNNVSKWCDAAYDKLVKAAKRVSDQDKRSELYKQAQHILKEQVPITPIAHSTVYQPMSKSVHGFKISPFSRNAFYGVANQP
Sequence of PA3610 (potD) (Q9HY16 21-354): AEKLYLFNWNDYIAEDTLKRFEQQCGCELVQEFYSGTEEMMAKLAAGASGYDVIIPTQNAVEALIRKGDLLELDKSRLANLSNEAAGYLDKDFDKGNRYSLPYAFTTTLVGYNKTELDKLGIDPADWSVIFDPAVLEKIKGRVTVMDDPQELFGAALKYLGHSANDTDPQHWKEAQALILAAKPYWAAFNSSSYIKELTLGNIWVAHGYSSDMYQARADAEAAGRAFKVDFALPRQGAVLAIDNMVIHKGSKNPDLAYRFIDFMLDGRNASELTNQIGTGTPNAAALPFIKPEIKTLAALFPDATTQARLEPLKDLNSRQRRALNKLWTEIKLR
Sequence of PA3889 (opuCC) (Q9HXC4 24-311): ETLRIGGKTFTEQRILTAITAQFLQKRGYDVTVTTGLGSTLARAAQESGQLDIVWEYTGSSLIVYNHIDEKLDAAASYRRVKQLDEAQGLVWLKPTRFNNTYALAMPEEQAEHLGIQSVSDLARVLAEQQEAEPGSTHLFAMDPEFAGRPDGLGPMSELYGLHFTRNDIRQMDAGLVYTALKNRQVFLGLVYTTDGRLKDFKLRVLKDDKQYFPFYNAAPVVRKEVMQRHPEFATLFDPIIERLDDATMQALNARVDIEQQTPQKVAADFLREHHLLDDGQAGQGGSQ

## NCCCCN=C(N)N [Agmatine]
PA2592 [1]
  Tm DSF (Tm increase): 5.3 °C
PA2592 [2]
  Kd: 15000 nM

## C[C@H](N)C(=O)N[C@@H](C)C(=O)N[C@@H](C)C(=O)O [Ala-Ala-Ala]
PA4500 (dppA3) [3]
  No Binding Observed by ITC: absence of binding
[4]; except molybdate 0.1 mM
  Chemotaxis: No (Positive chemotaxis was considered when the number of bacterial cells per capillary was superior to 5000.)
PA4497 (dppA2)
  Tm DSF (Tm increase): 9.1 °C

## C[C@H](N)C(=O)N[C@@H](C)C(=O)O [Ala-Ala] (H-Ala-Ala-OH)
PA4500 (dppA3) [3]
  Kd: 210 ± 20 nM
PA4500 (dppA3) [5]
  Tm DSF (Tm increase): 11 °C and 11.3 °C

## C[C@H](N)C(=O)NCC(=O)O [Ala-Gly] (H-Ala-Gly-OH)
[4]; except molybdate 0.1 mM
  Chemotaxis: No (Positive chemotaxis was considered when the number of bacterial cells per capillary was superior to 5000.)

## C[C@H](N)C(=O)N[C@@H](Cc1c[nH]cn1)C(=O)O [Ala-His] (H-Ala-His-OH; N-terminus and C-terminus assumed)
PA4500 (dppA3) [3]
  Kd: 7400 nM
PA4500 (dppA3) [5]
  Tm DSF (Tm increase): 3.0 °C

## C[C@H](N)C(=O)N[C@@H](Cc1ccccc1)C(=O)O [Ala-Phe]
PA4500 (dppA3) [3]
  Kd: 6100 nM
PA4500 (dppA3) [5]
  Tm DSF (Tm increase): 2.0 °C

## C[C@H](N)C(=O)N[C@H](C(=O)O)[C@@H](C)O [Ala-Thr] (H-Ala-Thr-OH; N-terminus and C-terminus assumed)
PA4500 (dppA3) [3]
  Kd: 980 nM
PA4500 (dppA3) [5]
  Tm DSF (Tm increase): 7 °C

## CCCC(=O)O [Butyrate, butyric acid]
PA0222
  No Binding Observed by ITC: failed to bind

## NCCCCCN [Cadaverine]
PA3610 (potD)
  Kd: 65000 nM

## C[N+](C)(C)CCO [Choline]
PA3889 (opuCC)
  No Binding Observed by ITC: no binding heats were observed

## C[C@@H](N)C(=O)O [D-Ala]
[4]; except molybdate 0.1 mM
  Chemotaxis: Yes [15, 41] Yes [15, 41] Yes [15, 41] Yes [15, 41] Yes [15, 41] Yes Yes [15, 41] n. d. (Positive chemotaxis was considered when the number of bacterial cells per capillary was superior to 5000.)
  Chemotaxis response in words: very strong taxis
PA1074 (braC)
  No Binding Observed by ITC: no binding was detected
PA4913
  Tm DSF (Tm increase): 6.8 °C

## N[C@@H](CCC(=O)O)C(=O)N[C@@H](CCC(=O)O)C(=O)O [Glu-Glu] (H-Glu-Glu-OH)
PA4500 (dppA3) [3]
  No Binding Observed by ITC: absence of binding

## C[C@H](NC(=O)CNC(=O)CN)C(=O)O [Gly-Gly-Ala]
[4]; except molybdate 0.1 mM
  Chemotaxis: No (Positive chemotaxis was considered when the number of bacterial cells per capillary was superior to 5000.)
PA4497 (dppA2)
  Tm DSF (Tm increase): 7.6 °C

## NCC(=O)NCC(=O)NCC(=O)O [Gly-Gly-Gly] (H-Gly-Gly-Gly-OH)
PA4497 (dppA2)
  Tm DSF (Tm increase): 4.4 °C

## CC[C@H](C)[C@H](NC(=O)CNC(=O)CN)C(=O)O [Gly-Gly-Ile] (H-Gly-Gly-Ile-OH)
PA4497 (dppA2)
  Tm DSF (Tm increase): 5.1 °C

## NCC(=O)NCC(=O)N[C@@H](Cc1ccccc1)C(=O)O [Gly-Gly-Phe] (H-Gly-Gly-Phe-OH)
PA4497 (dppA2)
  Tm DSF (Tm increase): 3.7 °C

## NCC(=O)NC(Cc1ccccc1)C(=O)NC(Cc1ccccc1)C(=O)O (stereo not drawn) [Gly-Phe-Phe] (H-Gly-Phe-Phe-OH; configuration not given here)
PA4497 (dppA2)
  Tm DSF (Tm increase): 6.6 °C

## NCC(=O)NC(CO)C(=O)O (centres unmarked) [Gly-Ser]
[4]; except molybdate 0.1 mM
  Chemotaxis: Yes (Positive chemotaxis was considered when the number of bacterial cells per capillary was superior to 5000.)

## CC(C)[C@H](NC(=O)CN)C(=O)O [Gly-Val] (H-Gly-Val-OH)
PA4500 (dppA3) [3]
  Kd: 6300 nM
PA4500 (dppA3) [5]
  Tm DSF (Tm increase): 2.0 °C

## C[C@H](N)C(=O)O [L-Ala]
PA4500 (dppA3) [3]
  No Binding Observed by ITC: absence of binding
PA1074 (braC)
  Kd: 210 nM
PA4913
  Tm DSF (Tm increase): 12.7 °C

## N[C@@H](CCO)C(=O)O [L-Homoserine]
[4]; corrected for buffer capillaries
  Chemotaxis response, number of cells per capillary: more than 300,000 cells per capillary
PA1074 (braC)
  Kd: 720 nM

## CC[C@H](C)[C@H](N)C(=O)O [L-Ile]
PA1074 (braC)
  Kd: 280 nM

## CC(C)[C@H](N)C(=O)O [L-Val]
PA1074 (braC)
  Kd: 70 nM
PA4913
  Tm DSF (Tm increase): 4.1 °C

## CC(C)C[C@H](N)C(=O)NCC(=O)NCC(=O)O [Leu-Gly-Gly] (H-Leu-Gly-Gly-OH)
[4]; except molybdate 0.1 mM
  Chemotaxis: Yes (Positive chemotaxis was considered when the number of bacterial cells per capillary was superior to 5000.)
PA4497 (dppA2)
  Tm DSF (Tm increase): 3.2 °C
